Publication PMC12079475, “Identification, validation, and characterization of approved and investigational drugs interfering with the SARS‐CoV‐2 endoribonuclease Nsp15” (Protein Science : A Publication of the Protein Society, 2025)
Read-outs that look alike come from different tables or passages of the source.

Columns and labels:
SARS‐CoV‐2 Nsp15 [1] = target: T1, SARS‐CoV‐2 Nsp15 (Severe acute respiratory syndrome coronavirus 2, UniProt P0DTD1); assay: biochemical
SARS‐CoV Nsp15 = conditions: previously reported; ref Ortiz‐Alcantara et al., 2010; read-out: inhibition potency of SARS‐CoV Nsp15; cited from earlier work
[2] = Readout interference test: compound added after the enzymatic reaction ran to completion; conditions: normalized to the DMSO control; compound added after 1 h Nsp15/substrate reaction
SARS‐CoV‐2 Nsp15 [3] = target: T1, SARS‐CoV‐2 Nsp15; assay: biochemical; format: biochemical; conditions: for inhibition at 10 µM: read-out: Inhibition % +L-Cys 10 µM
Nsp15 [4] = target: T2, Nsp15 (Severe acute respiratory syndrome coronavirus 2, UniProt P0DTD1)
Nsp15 [5] = target: T2, Nsp15; conditions: measured particle size
Vero‐E6 cells = conditions: cited from earlier work
[6] = test system: SARS‐CoV‐2 in Vero‐E6 cells; parameters: method as in Zaliani et al., 2022; conditions: ref Zaliani et al., 2022, read-out: EC50 cytopathic (CPE) assay; cited from earlier work
[7] = parameters: method as in Zhao et al., 2021; conditions: ref Zhao et al., 2021; cited from earlier work
[8] = DTT buffer, 30 min pre-incubation, read-out: IC50
[9] = 1 mM DTT buffer, confidence interval in brackets, read-out: IC50 + DTT (μM) (CI in μM)
[10] = DTT buffer (Table S1), read-out: IC50 +DTT
[11] = 1 mM L-cysteine buffer, confidence interval in brackets, read-out: IC50 + L‐Cys (μM) (CI in μM)
[12] = hit confirmation, 10 µM, DTT buffer, read-out: HC inhibition % +DTT 10 µM
[13] = primary screen, 10 µM (Table S1), read-out: PS Inhibition % 10 µM
[14] = primary screen, 10 μM compound, 1 mM DTT buffer, normalized to 50 μM Congo red (100%) and DMSO (0%), read-out: PS inhibition % 10 μM (single point measurement)

Nc1c(/N=N/c2ccc(-c3ccc(/N=N/c4cc(S(=O)(=O)O)c5ccccc5c4N)cc3)cc2)cc(S(=O)(=O)O)c2ccccc12 [Congo red]
IC50 (SARS‐CoV‐2 Nsp15 [1]; [8]): 7.5 µM | IC50 (SARS‐CoV Nsp15): 2500 nM

CC[n+]1c(-c2ccccc2)c2cc(N)ccc2c2ccc(N)cc21 [Homidium bromide]
quenching ratio of the fluorescence signal [2]: 26.13%

CC[N+](C)(CC)CCC[n+]1c(-c2ccccc2)c2cc(N)ccc2c2ccc(N)cc21.[I-].[I-] [Propidium‐iodide]
IC50 (SARS‐CoV‐2 Nsp15 [1]; [9]): 0.9 µM | IC50 (SARS‐CoV‐2 Nsp15 [1]; [10]): 0.95 µM | HC inhibition % +DTT 10 µM (SARS‐CoV‐2 Nsp15 [1]; hit confirmation, 10 µM, DTT buffer): 85,94% | PS Inhibition % 10 µM (SARS‐CoV‐2 Nsp15 [1]; primary screen, 10 µM (Table S1)): 83,07% | PS inhibition % 10 μM (single point measurement) (SARS‐CoV‐2 Nsp15 [1]; primary screen, 10 μM compound, 1 mM DTT buffer, normalized to 50 μM Congo red (100%) and DMSO (0%)): 83.1% | Inhibition % +L-Cys 10 µM (SARS‐CoV‐2 Nsp15 [3]; 10 µM, L-cysteine buffer): 68,98% | IC50 (SARS‐CoV‐2 Nsp15 [3]; [11]): 9 µM | ΔT m°C nDSF (Nsp15 [4]): 0.7 °C | effect on the hexameric Nsp15 structure (DLS) (Nsp15 [5]): significantly affected the hexameric Nsp15 structure

COc1cc2c(NC3CCN(C(C)C)CC3)nc(N3CCC(F)(F)CC3)nc2cc1OCCCN1CCCC1 [UNC0642]
CC50 (Vero‐E6 cells; tested concentration range up to 32 μM, ref Zaliani et al., 2022): > 32 µM | IC50 (SARS‐CoV‐2 Nsp15 [1]; [9]): 6.3 µM | IC50 (SARS‐CoV‐2 Nsp15 [1]; [10]): 6.27 µM | inhibition at 10 µM (SARS‐CoV‐2 Nsp15 [1]; [12]): 77.5% | inhibition at 10 µM (SARS‐CoV‐2 Nsp15 [1]; [13]): 56.9% | inhibition at 10 µM (SARS‐CoV‐2 Nsp15 [1]; [14]): 56.9% | inhibition at 10 µM (SARS‐CoV‐2 Nsp15 [3]; 10 µM, L-cysteine buffer): 80.2% | IC50 (SARS‐CoV‐2 Nsp15 [3]; [11]): 3.3 µM | IC50 (SARS‐CoV‐2 Nsp15 [3]; L-cysteine buffer (Table S1), read-out: IC50 +L-Cys): 3.27 µM | EC50 [6]: 16.7 µM

COc1cc2c(NC3CCN(C4CCCCC4)CC3)nc(N3CCCN(C(C)C)CC3)nc2cc1OCCCN1CCCCC1 [UNC0646]
CC50 (Vero‐E6 cells): 18.6 µM | IC50 (SARS‐CoV‐2 Nsp15 [1]; [9]): 1.4 µM | IC50 (SARS‐CoV‐2 Nsp15 [1]; [8]): 1.36 µM | inhibition at 10 µM (SARS‐CoV‐2 Nsp15 [1]; [12]): 83.2% | inhibition at 10 µM (SARS‐CoV‐2 Nsp15 [1]; [13]): 75.3% | inhibition at 10 µM (SARS‐CoV‐2 Nsp15 [1]; [14]): 75.3% | inhibition at 10 µM (SARS‐CoV‐2 Nsp15 [3]; 10 µM, L-cysteine buffer): 91.3% | IC50 (SARS‐CoV‐2 Nsp15 [3]; [11]): 0.7 µM | IC50 (SARS‐CoV‐2 Nsp15 [3]; L‐cysteine buffer, read-out: IC50): 0.73 µM | ΔT m°C nDSF (Nsp15 [4]): 0 °C | EC50 [6]: 35.4 µM

COCCn1c2c([n+](Cc3cnccn3)c1C)C(=O)c1ccccc1C2=O [YM‐155]
cytotoxicity in cell‐based assays [7]: no cytotoxicity at tested concentrations | IC50 (SARS‐CoV‐2 Nsp15 [1]; [9]): 1.2 µM | IC50 (SARS‐CoV‐2 Nsp15 [1]; [10]): 1.23 µM | inhibition at 10 µM (SARS‐CoV‐2 Nsp15 [1]; [12]): 79.7% | inhibition at 10 µM (SARS‐CoV‐2 Nsp15 [1]; [13]): 74% | inhibition at 10 µM (SARS‐CoV‐2 Nsp15 [1]; [14]): 74% | inhibition at 10 µM (SARS‐CoV‐2 Nsp15 [3]; 10 µM, L-cysteine buffer): 12.4% | loss of the inhibition potency in L‐cysteine buffer (SARS‐CoV‐2 Nsp15 [3]; 1 mM L‐cysteine buffer compared with DTT buffer): more than 50% | ΔT m°C nDSF (Nsp15 [4]): 0.1 °C
